{"source": "paper PMC5218480", "about": "(PLoS ONE, 2017)", "system": "MV-4-11 cells", "assay": "Gene expression microarray analysis (Affymetrix PrimeView) and GSEA", "type": "cell-based, human", "design": "RFU PODN (11730768_x_at) / Fold change /veh PODN (11730768_x_at) / RFU LINC00158 (11744669_a_at) / Fold change /veh LINC00158 (11744669_a_at) / RFU DUSP10 (11751237_a_at) / Fold change /veh DUSP10 (11751237_a_at) / RFU ID3 (11757404_x_at) / Fold change /veh ID3 (11757404_x_at) / RFU PLEKHG5 (11737974_s_at) / Fold change /veh PLEKHG5 (11737974_s_at) / RFU LRRC4B (11730491_at) / Fold change /veh LRRC4B (11730491_at) / RFU GIMAP4 (11747438_a_at) / Fold change /veh GIMAP4 (11747438_a_at) / RFU KRT8 (11758183_x_at) / Fold change /veh KRT8 (11758183_x_at) / RFU CNN1 (11734310_a_at) / Fold change /veh CNN1 (11734310_a_at) / RFU VPS37D (11726825_at) / Fold change /veh VPS37D (11726825_at) / RFU C10orf10 (11716522_x_at) / Fold change /veh C10orf10 (11716522_x_at) / RFU KIR2DL2 /// KIR2DL4 /// KIR2DL5A /// KIR2DL5B /// KIR2DS1 /// KIR2DS2 /// KIR2DS3 /// KIR2DS4 /// KIR3DL3 /// KIR3DL3 /// KIR3DS1 (11738374_at) / Fold change /veh KIR2DL2 /// KIR2DL4 /// KIR2DL5A /// KIR2DL5B /// KIR2DS1 /// KIR2DS2 /// KIR2DS3 /// KIR2DS4 /// KIR3DL3 /// KIR3DL3 /// KIR3DS1 (11738374_at) / RFU C1QL1 (11718748_at) / Fold change /veh C1QL1 (11718748_at) / RFU TMPRSS4 (11747572_a_at) / Fold change /veh TMPRSS4 (11747572_a_at) / RFU HAMP (11756126_x_at) / Fold change /veh HAMP (11756126_x_at) / RFU RNFT2 (11725882_a_at) / Fold change /veh RNFT2 (11725882_a_at) / RFU NR4A2 (11747474_a_at) / Fold change /veh NR4A2 (11747474_a_at) / RFU ABCC12 (11746883_a_at) / Fold change /veh ABCC12 (11746883_a_at) / RFU TMEM136 (11760407_x_at) / Fold change /veh TMEM136 (11760407_x_at) / RFU CLDN22 /// WWC2 (11732394_at) / Fold change /veh CLDN22 /// WWC2 (11732394_at) / RFU HLA-DPB1 (11760878_x_at) / Fold change /veh HLA-DPB1 (11760878_x_at) / RFU SPINT1 (11716480_a_at) / Fold change /veh SPINT1 (11716480_a_at) / RFU GAP43 (11754022_s_at) / Fold change /veh GAP43 (11754022_s_at) / RFU A4GNT (11735810_at) / Fold change /veh A4GNT (11735810_at) / RFU PRB3 (11715151_x_at) / Fold change /veh PRB3 (11715151_x_at) / RFU TUBB4B (11761932_at) / Fold change /veh TUBB4B (11761932_at) / RFU CAPN14 (11732068_a_at) / Fold change /veh CAPN14 (11732068_a_at) / RFU TMCC2 (11721928_a_at) / Fold change /veh TMCC2 (11721928_a_at) / RFU IRGQ (11745062_a_at) / Fold change /veh IRGQ (11745062_a_at) / RFU FAM174B (11720279_a_at) / Fold change /veh FAM174B (11720279_a_at) / RFU TMPRSS4 (11748680_a_at) / Fold change /veh TMPRSS4 (11748680_a_at) / RFU FAM212B (11763350_a_at) / Fold change /veh FAM212B (11763350_a_at) / RFU PLEKHG5 (11743358_a_at) / Fold change /veh PLEKHG5 (11743358_a_at) / RFU ZSCAN30 (11745921_a_at) / Fold change /veh ZSCAN30 (11745921_a_at) / RFU CMKLR1 (11741424_a_at) / Fold change /veh CMKLR1 (11741424_a_at) / RFU LOC101060620 /// MAPK8IP1 (11723275_at) / Fold change /veh LOC101060620 /// MAPK8IP1 (11723275_at) / RFU SPTSSB (11747773_x_at) / Fold change /veh SPTSSB (11747773_x_at) / RFU PRSS12 (11739890_at) / Fold change /veh PRSS12 (11739890_at) / RFU BIN1 (11741810_x_at) / Fold change /veh BIN1 (11741810_x_at) / RFU WNT11 (11732464_a_at) / Fold change /veh WNT11 (11732464_a_at) / RFU C10orf10 (11716521_a_at) / Fold change /veh C10orf10 (11716521_a_at) / RFU C5orf56 (11738089_at) / Fold change /veh C5orf56 (11738089_at) / RFU CYB561 (11721691_x_at) / Fold change /veh CYB561 (11721691_x_at) / RFU ANKRD19P (11752326_a_at) / Fold change /veh ANKRD19P (11752326_a_at) / RFU OR2T12 /// OR2T33 /// OR2T8 (11738714_s_at) / Fold change /veh OR2T12 /// OR2T33 /// OR2T8 (11738714_s_at) / RFU VCAN (11748164_a_at) / Fold change /veh VCAN (11748164_a_at) / RFU JSRP1 (11732532_at) / Fold change /veh JSRP1 (11732532_at) / RFU KRTAP10-11 (11738290_x_at) / Fold change /veh KRTAP10-11 (11738290_x_at) / RFU MYO3A (11730013_a_at) / Fold change /veh MYO3A (11730013_a_at) / RFU EBF3 (11725865_a_at) / Fold change /veh EBF3 (11725865_a_at) / RFU CAMK2N1 (11719241_x_at) / Fold change /veh CAMK2N1 (11719241_x_at) / RFU C5orf56 (11738088_a_at) / Fold change /veh C5orf56 (11738088_a_at) / RFU OLFML3 (11715873_a_at) / Fold change /veh OLFML3 (11715873_a_at) / RFU LOC100653217 /// NTM (11731650_a_at) / Fold change /veh LOC100653217 /// NTM (11731650_a_at) / RFU MAPK11 (11762145_a_at) / Fold change /veh MAPK11 (11762145_a_at) / RFU FIZ1 (11724087_x_at) / Fold change /veh FIZ1 (11724087_x_at) / RFU OASL (11726364_x_at) / Fold change /veh OASL (11726364_x_at) / RFU SOX15 (11748057_x_at) / Fold change /veh SOX15 (11748057_x_at) / RFU CD79A (11719716_a_at) / Fold change /veh CD79A (11719716_a_at) / RFU HIST1H1D (11736915_at) / Fold change /veh HIST1H1D (11736915_at) / RFU CASKIN2 (11723855_a_at) / Fold change /veh CASKIN2 (11723855_a_at) / RFU LOC730098 (11760151_x_at) / Fold change /veh LOC730098 (11760151_x_at) / RFU OR4N2 (11742367_at) / Fold change /veh OR4N2 (11742367_at) / RFU PRRT2 (11749266_a_at) / Fold change /veh PRRT2 (11749266_a_at) / RFU SNX32 (11753110_a_at) / Fold change /veh SNX32 (11753110_a_at) / RFU CDHR5 (11726645_a_at) / Fold change /veh CDHR5 (11726645_a_at) / RFU RCAN1 (11760418_a_at) / Fold change /veh RCAN1 (11760418_a_at) / RFU FAM167A (11723789_a_at) / Fold change /veh FAM167A (11723789_a_at) / RFU FAM26E (11764081_at) / Fold change /veh FAM26E (11764081_at) / RFU ISYNA1 (11749810_s_at) / Fold change /veh ISYNA1 (11749810_s_at) / RFU ACY1 (11761880_at) / Fold change /veh ACY1 (11761880_at) / RFU 11764098_at / Fold change /veh 11764098_at / RFU SAMD14 (11745864_x_at) / Fold change /veh SAMD14 (11745864_x_at) / RFU NPB (11741838_a_at) / Fold change /veh NPB (11741838_a_at) / RFU TMPRSS6 (11731388_a_at) / Fold change /veh TMPRSS6 (11731388_a_at) / RFU KRTAP10-2 (11738614_at) / Fold change /veh KRTAP10-2 (11738614_at) / RFU ARHGAP8 /// PRR5-ARHGAP8 (11727945_x_at) / Fold change /veh ARHGAP8 /// PRR5-ARHGAP8 (11727945_x_at) / RFU KRTAP5-7 /// NADSYN1 (11734609_at) / Fold change /veh KRTAP5-7 /// NADSYN1 (11734609_at) / RFU RASL12 (11751679_a_at) / Fold change /veh RASL12 (11751679_a_at) / RFU CDKN2B (11736163_a_at) / Fold change /veh CDKN2B (11736163_a_at) / RFU PRF1 (11729649_at) / Fold change /veh PRF1 (11729649_at) / RFU, ZNF638 /// ZNF638-IT1 / Fold change vs veh, ZNF638 /// ZNF638-IT1 / RFU, PANK3 / Fold change vs veh, PANK3 / RFU, SH3YL1 / Fold change vs veh, SH3YL1 / RFU, ZEB2 / Fold change vs veh, ZEB2 / RFU, NRIP1 / Fold change vs veh, NRIP1 / RFU, PTTG1IP / Fold change vs veh, PTTG1IP / RFU, CAPN2 / Fold change vs veh, CAPN2 / RFU, MED14 / Fold change vs veh, MED14 / RFU, SNORA58 / Fold change vs veh, SNORA58 / RFU, C1orf63 / Fold change vs veh, C1orf63 / RFU, LRRFIP1 / Fold change vs veh, LRRFIP1 / RFU, NDUFAF7 / Fold change vs veh, NDUFAF7 / RFU, SLC12A2 / Fold change vs veh, SLC12A2 / RFU, IBTK / Fold change vs veh, IBTK / RFU, ESF1 / Fold change vs veh, ESF1 / Fold change vs veh, TMEM50B / RFU, TAOK1 / Fold change vs veh, TAOK1 / RFU, ACBD3 / Fold change vs veh, ACBD3 / RFU, TMA16 / Fold change vs veh, TMA16 / RFU, RWDD3 / Fold change vs veh, RWDD3 / RFU, BCAT1 / Fold change vs veh, BCAT1 / RFU, EDEM3 / Fold change vs veh, EDEM3 / RFU, TMEM33 / Fold change vs veh, TMEM33 / RFU, WDR75 / Fold change vs veh, WDR75 / RFU, AHCTF1 / Fold change vs veh, AHCTF1 / RFU, TFRC / Fold change vs veh, TFRC / RFU, ZDHHC17 / Fold change vs veh, ZDHHC17 / RFU, NOM1 / Fold change vs veh, NOM1 / RFU, ARL8B / Fold change vs veh, ARL8B / RFU, ZBTB11 / Fold change vs veh, ZBTB11 / RFU, TAMM41 / Fold change vs veh, TAMM41 / RFU, KIAA1704 /// LOC100996395 / Fold change vs veh, KIAA1704 /// LOC100996395 / RFU, ING1 / Fold change vs veh, ING1 / RFU, TRMT61B / Fold change vs veh, TRMT61B / RFU, FUBP3 / Fold change vs veh, FUBP3 / RFU, TP53 / Fold change vs veh, TP53 / RFU, TNKS2 / Fold change vs veh, TNKS2 / RFU, ZFP14 / Fold change vs veh, ZFP14 / RFU, ACTR2 / Fold change vs veh, ACTR2 / RFU, PPP3R1 / Fold change vs veh, PPP3R1 / RFU, PIK3R1 / Fold change vs veh, PIK3R1 / RFU, HNRNPA1 / Fold change vs veh, HNRNPA1 / RFU, RNF170 / Fold change vs veh, RNF170 / RFU, ZNF28 / Fold change vs veh, ZNF28 / RFU, RNGTT / Fold change vs veh, RNGTT / RFU, OGT / Fold change vs veh, OGT / RFU, BRD1 / Fold change vs veh, BRD1 / RFU, MARS / Fold change vs veh, MARS / RFU, ZNF655 / Fold change vs veh, ZNF655 / RFU, FAHD1 / Fold change vs veh, FAHD1 / RFU, BDP1 / Fold change vs veh, BDP1 / RFU, LRRCC1 / Fold change vs veh, LRRCC1 / RFU, ARID1A / Fold change vs veh, ARID1A / RFU, ZNF146 / Fold change vs veh, ZNF146 / RFU, ZNF330 / Fold change vs veh, ZNF330 / RFU, GPN3 / Fold change vs veh, GPN3 / RFU, C9orf123 / Fold change vs veh, C9orf123 / RFU, N4BP2L2 / Fold change vs veh, N4BP2L2 / RFU, ARFIP1 / Fold change vs veh, ARFIP1 / RFU, FAM179B / Fold change vs veh, FAM179B / RFU, BCL10 / Fold change vs veh, BCL10 / RFU, UHRF1BP1L / Fold change vs veh, UHRF1BP1L / RFU, BET1 / Fold change vs veh, BET1 / RFU, CNOT2 / Fold change vs veh, CNOT2 / RFU, ZNF268 / Fold change vs veh, ZNF268 / Fold change vs veh, ZNF507 / RFU, DGCR2 / Fold change vs veh, DGCR2 / RFU, WDSUB1 / Fold change vs veh, WDSUB1 / Fold change vs veh, HSP90B1 /// MIR3652 / RFU, ADSS / Fold change vs veh, ADSS / RFU, GK / Fold change vs veh, GK / RFU, ZNF148 / Fold change vs veh, ZNF148 / RFU, TAF9 / Fold change vs veh, TAF9 / RFU, SLC1A5 / Fold change vs veh, SLC1A5 / RFU, SLMO2 / Fold change vs veh, SLMO2 / RFU, ABCC4 / Fold change vs veh, ABCC4 / RFU, LOC101060439 /// RAP1B / Fold change vs veh, LOC101060439 /// RAP1B / RFU, RFX7 / Fold change vs veh, RFX7 / RFU, GTPBP10 / Fold change vs veh, GTPBP10 / RFU, CNEP1R1 / Fold change vs veh, CNEP1R1 / RFU, BIVM-ERCC5 /// ERCC5 / Fold change vs veh, BIVM-ERCC5 /// ERCC5 / RFU, ILF3 / Fold change vs veh, ILF3 / RFU 11762660_at / Fold change /veh 11762660_at / RFU VCAN (11757783_s_at) / Fold change /veh VCAN (11757783_s_at) / RFU DDX43 (11728927_at) / Fold change /veh DDX43 (11728927_at) / RFU KRT8 (11758188_x_at) / Fold change /veh KRT8 (11758188_x_at) / RFU NKD1 (11759106_at) / Fold change /veh NKD1 (11759106_at) / RFU SRD5A1 (11742802_a_at) / Fold change /veh SRD5A1 (11742802_a_at) / RFU TPSAB1 /// TPSB2 (11721975_s_at) / Fold change /veh TPSAB1 /// TPSB2 (11721975_s_at) / RFU GSTM3 (11746129_a_at) / Fold change /veh GSTM3 (11746129_a_at) / RFU IL23R (11737362_x_at) / Fold change /veh IL23R (11737362_x_at) / RFU TMEM51 (11727254_a_at) / Fold change /veh TMEM51 (11727254_a_at) / RFU PIWIL2 (11732686_x_at) / Fold change /veh PIWIL2 (11732686_x_at) / RFU ORM1 (11744905_x_at) / Fold change /veh ORM1 (11744905_x_at) / RFU CCDC152 (11743942_at) / Fold change /veh CCDC152 (11743942_at) / RFU ECM1 (11717891_a_at) / Fold change /veh ECM1 (11717891_a_at) / RFU IL23R (11748794_a_at) / Fold change /veh IL23R (11748794_a_at) / RFU TNFAIP8L3 (11732012_x_at) / Fold change /veh TNFAIP8L3 (11732012_x_at) / RFU MBOAT4 (11741988_at) / Fold change /veh MBOAT4 (11741988_at) / RFU 11764193_at / Fold change /veh 11764193_at / RFU TMEM53 (11763286_at) / Fold change /veh TMEM53 (11763286_at) / RFU MAGEB2 (11727129_at) / Fold change /veh MAGEB2 (11727129_at) / RFU TMEM200A (11744735_a_at) / Fold change /veh TMEM200A (11744735_a_at) / RFU CCDC152 (11751479_a_at) / Fold change /veh CCDC152 (11751479_a_at) / RFU FAM211A (11726209_a_at) / Fold change /veh FAM211A (11726209_a_at) / RFU RGS16 (11746705_a_at) / Fold change /veh RGS16 (11746705_a_at) / RFU VCAN (11755009_s_at) / Fold change /veh VCAN (11755009_s_at) / RFU RHOB (11743442_s_at) / Fold change /veh RHOB (11743442_s_at) / RFU RGS16 (11720943_a_at) / Fold change /veh RGS16 (11720943_a_at) / RFU RGS16 (11720944_at) / Fold change /veh RGS16 (11720944_at) / RFU, VPS4B / Fold change vs veh, VPS4B / RFU, CREB1 / Fold change vs veh, CREB1 / RFU, DNAJC13 / Fold change vs veh, DNAJC13 / RFU, GNAQ / Fold change vs veh, GNAQ / RFU, CDK5R1 / Fold change vs veh, CDK5R1 / RFU, ZRANB3 / Fold change vs veh, ZRANB3 / RFU, CUL4A / Fold change vs veh, CUL4A / RFU, CCNY / Fold change vs veh, CCNY / RFU, UFL1 / Fold change vs veh, UFL1 / RFU, COG3 / Fold change vs veh, COG3 / RFU, DIAPH2 / Fold change vs veh, DIAPH2 / RFU, SKA2 / Fold change vs veh, SKA2 / RFU, AFF3 / Fold change vs veh, AFF3 / RFU, LMF1 / Fold change vs veh, LMF1 / RFU, IPO11 / Fold change vs veh, IPO11 / RFU, DFFB / Fold change vs veh, DFFB / RFU, FOXP1 / Fold change vs veh, FOXP1 / RFU, CARD8 / Fold change vs veh, CARD8 / RFU, STRN3 / Fold change vs veh, STRN3 / RFU, ADK / Fold change vs veh, ADK / RFU, RASSF2 / Fold change vs veh, RASSF2 / RFU, WIPF1 / Fold change vs veh, WIPF1 / RFU, LARP1B / Fold change vs veh, LARP1B / RFU, RASA1 / Fold change vs veh, RASA1 / RFU, RB1 / Fold change vs veh, RB1 / RFU, PPFIA1 / Fold change vs veh, PPFIA1 / RFU, MAT2A / Fold change vs veh, MAT2A / RFU, CCT5 / Fold change vs veh, CCT5 / RFU, WDR92 / Fold change vs veh, WDR92 / RFU, CUX1 / Fold change vs veh, CUX1 / RFU, TTC7A / Fold change vs veh, TTC7A / RFU, TMEM135 / Fold change vs veh, TMEM135 / RFU, DEPTOR / Fold change vs veh, DEPTOR / RFU, CPM / Fold change vs veh, CPM / RFU, DNAJB6 / Fold change vs veh, DNAJB6 / RFU, CACNA2D3 / Fold change vs veh, CACNA2D3 / RFU, DTX4 / Fold change vs veh, DTX4 / RFU, TFCP2 / Fold change vs veh, TFCP2 / RFU, GMCL1 /// GMCL1P1 / Fold change vs veh, GMCL1 /// GMCL1P1 / RFU, AEBP2 / Fold change vs veh, AEBP2 / RFU, SNHG1 /// SNORD22 /// SNORD25 /// SNORD26 /// SNORD27 /// SNORD28 /// SNORD29 /// SNORD31 / Fold change vs veh, SNHG1 /// SNORD22 /// SNORD25 /// SNORD26 /// SNORD27 /// SNORD28 /// SNORD29 /// SNORD31 / Fold change (Aza/veh), C12orf56 (ProbeSet 11735607_a_at) / Fold change (ACY-1035/veh), C12orf56 (ProbeSet 11735607_a_at) / Fold change (Aza/veh), FGFR1OP (ProbeSet 11751329_s_at) / Fold change (ACY-1035/veh), FGFR1OP (ProbeSet 11751329_s_at) / Fold change (Aza/veh), VPS36 (ProbeSet 11739960_a_at) / Fold change (ACY-1035/veh), VPS36 (ProbeSet 11739960_a_at) / RFU SYPL1 (11715823_x_at) / Fold change /veh SYPL1 (11715823_x_at) / RFU IGFBP7 (11715501_s_at) / Fold change /veh IGFBP7 (11715501_s_at) / RFU REEP3 (11722064_at) / Fold change /veh REEP3 (11722064_at) / RFU IGLL1 (11728026_x_at) / Fold change /veh IGLL1 (11728026_x_at): dose or concentration left out as unconfirmed", "details": "ProbeSet 11731461_x_at; LIST D"}
{"smiles": "Nc1ccc(-c2cccs2)cc1NC(=O)c1ccc2c(c1)cc(C1CC1)n2CCN1CCOCC1", "note": "[ACY-1035]", "values": [{"measurement": "Fold change vs veh, CPM", "value": 0.83}]}
